Consider two compounds from patent US8771764B2, “Composition and method for improving vascular health” (Malaysian Palm Oil Board, priority 2009, dated 2014).

In one assay the test system is Sprague-Dawley rats. Description: Blood pressure study in L-NAME (nitric oxide deficient) model of hypertension, dietary OPP. The class given is in vivo, rat. The text has this: In order to determine the effect of OPP in blood pressure reduction, a method utilizing a nitric oxide (NO) deficient model of hypertension was used. This animal model involves the inhibition of endogenous NO production with L-NAME (N^G-nitro-L-arginine methyl ester) that leads to elevation in BP.
12 weeks old Sprague-Dawley rats were fed a standard laboratory rat diet, formulated to contain low n-3 polyunsaturated fatty acids (Glen Forrest Stock feeders, Glen Forrest, W.A., Australia). The OPP was provided as a drink at a rate of 30 ml/rat/day. OPP were provided at two different strengths—as liquid (1500 GAE) and in a concentrated liquid form at 3000 GAE (prepared using the freeze-dried preparation at 30,000 GAE). Rats were pre-treated for four weeks prior to challenge with L-NAME. […]
BP was monitored fortnightly by standard photoelectric tail-cuff procedure (IITC, Life Sciences, Woodlands Hills, Calif., USA) as described in detail previously. […] The pulse was detected as the cuff pressure was reduced and the pressure at which the first pulse detected was taken as the systolic blood pressure and computed automatically (IITC software package). The ambient temperature was carefully controlled (30° C.) and the average of 3-4 readings was taken as the final reading.

For another assay, the system named is human LDL. The experiment in a line: Copper-mediated LDL oxidation, conjugated diene formation. It counts as biochemical. The conditions noted are these: for Lag time (mins), conjugated diene formation: control LDL 67 ± 12, means ± SD. Here is the method: Blood from six healthy normocholesterolemic adult volunteers was collected into vacutainer tubes containing EDTA and centrifuged (1000×g for 15 min) to isolate plasma. LDL was isolated by density gradient centrifugation in a Beckman Ultracentrifuge using a 50.2 Ti rotor, based on the method of Sundram et al. (2). The LDL layer following sequential isolation at density 1.063 kg/L was removed and dialyzed against 4 L of PBS, pH 7.4 and purged with nitrogen for 12-18 h. After dialysis, the cholesterol concentration in the pooled LDL sample was determined using an automated Cholesterol assay. The LDL fraction was used immediately or immediately stored under nitrogen at 4° C. and analyzed for LDL oxidation within 48 h.
To evaluate the ability of OPP to inhibit copper (Cu) mediated LDL oxidation, conjugated dienes (CD) were continually monitored at 5-min intervals at 37° C. by UV absorption at 234 nm. LDL oxidation was initiated by addition of copper sulfate at a final concentration of 6 μmol/L to 90 μg of LDL cholesterol in a final volume of 1 mL. The purified test compounds (catechin obtained from Sigma Chemical) and OPP extracts were added immediately before the addition of the oxidant. The extracts were added at a final concentration range of 0.25-1.0 μmol/L GAB and the purified compounds at a final concentration of 0.25 or 0.5 μmol/L. All LDL oxidations were performed in triplicate. The lag time in the presence or absence of the test compounds was determined as the intercept of the slopes for the lag and propagation phases. This was compared with the control oxidized LDL to determine the percentage of LDL oxidation inhibition.

Turning to `COC(=O)[C@@H](N)CCCNC(=N)N[N+](=O)[O-]` [L-NAME, N^G-nitro-L-arginine methyl ester], the “initial rise in BP on introduction of L-NAME” value with Sprague-Dawley rats (L-NAME 10 mg/Kg, OPP pre-treatment 4 weeks) was 18 mmHg. For the same compound, the “final BP values” with Sprague-Dawley rats (conclusion of experiment, L-NAME 10 then 15 mg/Kg, OPP drink 30 ml/rat/day, tail-cuff systolic BP, n=12) is listed as 176±2.5 mmHg.
As for catechin, the “Lag time (mins), conjugated diene formation” value in the assay on human LDL (0.25 μmol/L) is 87 ± 13 min; in the assay on human LDL (0.5 μmol/L), 104 ± 10 min. In the assay with human LDL (0.5 μmol/L), the “LDL lag phase lengthened / increase in lag time relative to control LDL” value came out at 55%.
